The results in this text go back to US20150119251A1, “AGRICULTURAL PLANT-PROTECTING AGENTS CONTAINING DIPEPTIDE DERIVATIVE AS ACTIVE INGREDIENT” (REPUBLIC OF KOREA (RURAL DEVELOPMENT ADMINISTRATION), priority 2012, published 2015).

The test relates to tobacco bacterial rot (Pectobacterium carotovorum). In words: Suppression of tobacco bacterial rot. In kind it is in vivo, Pectobacterium carotovorum SCC1. The procedure: A tobacco or cucumber was sown in a plastic pot with a diameter of 10 cm×13 cm, and then, 12 pots were added in a yellow box. After seeding, 100 μL was inoculated to the cotyledons of cucumber or tobacco, in which first leaf was started to come out. The test compounds were dissolved in 20% methanol to make a stock solution, and then, the stock solution was diluted to the concentrations of 1, 10, and 100 ppm.
After 7 days, the pathogen of a plant bacterial rot (Pectobacterium carotovorum SCC1) was cultured in a TSA medium for 27 hours; and then, the cultured pathogen was sprayed in a concentration of 10^8 cfu/mL to the plant leaves, and cultured at 30° C. for 3 days. The plant anthracnose germ (Colletotrichum orbiculare) was cultured in a GBA (Green bean agar) medium to induce spores for about 2 to 3 weeks. The germ was sprayed in a concentration of 10^5 cell/mL and then cultured at 26° C. for 1 day. When fourth or fifth leaf came out, 200 μL of each of the test compounds was inoculated to third leaf. After 7 days, the pathogen of the plant bacterial rot was sprayed to the plant leaves in the concentration of 10^8 cfu/mL, and then cultured at 30° C. for 3 days.
The investigation was performed with naked eyes, and the lesion relative areas were investigated until 0 to 100% according to the shortness degrees of the bacterial rot. The anthracnose was investigated by counting the number of lesions occurred on the leaves.

The structures appear in SMILES notation. Square brackets hold non-standard residues; d marks the D form. Peptide text beside a SMILES is read from it. * marks the point of attachment. ξ: configuration not given here. dIle(3ξ) = CCC(C)[C@@H](N)C(=O)O; Boc = CC(C)(C)OC(=O)*; OtBu = CC(C)(C)O*

As to `COC(=O)[C@H]1CCCN1C(=O)[C@H](Cc1ccc(O)cc1)NC(=O)OC(C)(C)C` [Compound 35] (Boc-Tyr-[dP]-OMe), the Lesion outbreak rate by setting is: (Table 4, tobacco, 1 ppm) 18%; (Table 4, tobacco, 10 ppm) 43%; (Table 4, tobacco, 100 ppm) 50%.

Regarding `COC(=O)[C@@H]1CCCN1C(=O)[C@H](CC(N)=O)NC(=O)OC(C)(C)C` [Compound 26] (Boc-Asn-Pro-OMe), the Lesion outbreak rate is recorded as 63% (Table 4, tobacco, 1 ppm); 23% (Table 4, tobacco, 10 ppm); 60% (Table 4, tobacco, 100 ppm).

For the molecule `COC(=O)[C@@H]1CCCN1C(=O)[C@@H](Cc1c[nH]c2ccccc12)NC(=O)OC(C)(C)C` [Compound 52] (Boc-[dW]-Pro-OMe), the Lesion outbreak rate is, setting by setting: (Table 5, tobacco, 10 ppm) 0%; (Table 5, tobacco, 100 ppm) 25%.

For the molecule `COC(=O)[C@H](CC(C)C)NC(=O)[C@H](CO)NC(=O)OC(C)(C)C` [Compound 1] (Boc-Ser-Leu-OMe), the Lesion outbreak rate by setting is: (Table 3, tobacco, 1 ppm) 73%; (Table 3, tobacco, 10 ppm) 10%; (Table 3, tobacco, 100 ppm) 57%.

`COC(=O)[C@H](CC(C)C)NC(=O)[C@@H](N)CO` [Compound 2] (H-Ser-Leu-OMe) returned a Lesion outbreak rate (Table 3, tobacco, 1 ppm) of 60%; a Lesion outbreak rate (Table 3, tobacco, 10 ppm) of 39%; a Lesion outbreak rate (Table 3, tobacco, 100 ppm) of 41%.

As to `COC(=O)C1CCCN1C(=O)C(NC(=O)OC(C)(C)C)C(C)O` (stereo not drawn) [Compound 47] (Boc-Thr-Pro-OMe; configuration not given here), the Lesion outbreak rate runs as follows: (Table 5, tobacco, 10 ppm) 0%; (Table 5, tobacco, 100 ppm) 50%.

As to `COC(=O)[C@@H]1CCCN1C(=O)[C@@H](NC(=O)OC(C)(C)C)C(C)C` [Compound 21] (Boc-Val-Pro-OMe), the Lesion outbreak rate came to 37% (Table 6, tobacco, 1 ppm); 46% (Table 6, tobacco, 10 ppm); 35% (Table 6, tobacco, 100 ppm).

In turn, `COC(=O)[C@@H]1CCCN1C(=O)[C@H](CCCCNC(=O)OC(C)(C)C)NC(=O)OC(C)(C)C` [Compound 28] (Boc-Lys(Boc)-Pro-OMe) showed a Lesion outbreak rate (Table 4, tobacco, 1 ppm) of 20%; a Lesion outbreak rate (Table 4, tobacco, 10 ppm) of 80%; a Lesion outbreak rate (Table 4, tobacco, 100 ppm) of 13%.

`COC(=O)[C@H](C)NC(=O)[C@H](C)NC(=O)OC(C)(C)C` [Compound 13] (Boc-Ala-Ala-OMe): the Lesion outbreak rate reads like this: (Table 6, tobacco, 1 ppm) 100%; (Table 6, tobacco, 10 ppm) 100%; (Table 6, tobacco, 100 ppm) 28%.

With `COC(=O)[C@H]1CCCN1C(=O)[C@@H](Cc1c[nH]c2ccccc12)NC(=O)OC(C)(C)C` [Compound 73] (Boc-[dW]-[dP]-OMe), the Lesion outbreak rate (Table 6, tobacco, 1 ppm) was 35%; the Lesion outbreak rate (Table 6, tobacco, 10 ppm) was 60%; the Lesion outbreak rate (Table 6, tobacco, 100 ppm) is 46%.

In the case of `COC(=O)[C@H]1CCCN1C(=O)[C@@H](CCSC)NC(=O)OC(C)(C)C` [Compound 68] (Boc-[dM]-[dP]-OMe), the Lesion outbreak rate came out at 78% (Table 6, tobacco, 1 ppm); 53% (Table 6, tobacco, 10 ppm); 25% (Table 6, tobacco, 100 ppm).

In the case of `COC(=O)[C@H]1CCCN1C(=O)[C@H](Cc1c[nH]c2ccccc12)NC(=O)OC(C)(C)C` [Compound 43] (Boc-Trp-[dP]-OMe), the Lesion outbreak rate by setting is: (Table 4, tobacco, 1 ppm) 35%; (Table 4, tobacco, 10 ppm) 45%; (Table 4, tobacco, 100 ppm) 31%.

Consider `COC(=O)[C@H]1CCCN1C(=O)[C@H](CCC(=O)OC(C)(C)C)NC(=O)OC(C)(C)C` [Compound 50] (Boc-Glu(OtBu)-[dP]-OMe), for which the Lesion outbreak rate is, setting by setting: (Table 5, tobacco, 10 ppm) 35%; (Table 5, tobacco, 100 ppm) 60%.

With `COC(=O)[C@@H]1CCCN1C(=O)[C@H]1CCCN1C(=O)OC(C)(C)C` [Compound 55] (Boc-[dP]-Pro-OMe), the Lesion outbreak rate was 48% (Table 5, tobacco, 10 ppm) and 36% (Table 5, tobacco, 100 ppm).

Turning to `COC(=O)[C@H]1CCCN1C(=O)[C@H](CO)NC(=O)OC(C)(C)C` [Compound 39] (Boc-Ser-[dP]-OMe), the Lesion outbreak rate is, setting by setting: (Table 4, tobacco, 1 ppm) 35%; (Table 4, tobacco, 10 ppm) 10%; (Table 4, tobacco, 100 ppm) 43%.

For the molecule `COC(=O)[C@@H]1CCCN1C(=O)[C@@H](C)NC(=O)OC(C)(C)C` [Compound 51] (Boc-[dA]-Pro-OMe), the Lesion outbreak rate is 0% (Table 5, tobacco, 10 ppm) and 68% (Table 5, tobacco, 100 ppm).

`CCC(C)[C@@H](NC(=O)OC(C)(C)C)C(=O)N1CCC[C@H]1C(=O)OC` (stereo partly shown) [Compound 58] (Boc-[dIle(3ξ)]-Pro-OMe): the Lesion outbreak rate reads like this: (Table 5, tobacco, 10 ppm) 28%; (Table 5, tobacco, 100 ppm) 13%.

With `COC(=O)[C@@H]1CCCN1C(=O)[C@H](Cc1c[nH]cn1)NC(=O)OC(C)(C)C` [Compound 29], the Lesion outbreak rate was determined as 63% (Table 4, tobacco, 1 ppm); 43% (Table 4, tobacco, 10 ppm); 63% (Table 4, tobacco, 100 ppm).

Regarding `COC(=O)[C@H]1CCCN1C(=O)[C@@H]1CCCN1C(=O)OC(C)(C)C` [Compound 33] (Boc-Pro-[dP]-OMe), the Lesion outbreak rate is, setting by setting: (Table 4, tobacco, 1 ppm) 80%; (Table 4, tobacco, 10 ppm) 38%; (Table 4, tobacco, 100 ppm) 18%.

`COC(=O)[C@H]1CCCN1C(=O)[C@H](CC(N)=O)NC(=O)OC(C)(C)C` [Compound 41] (Boc-Asn-[dP]-OMe): the Lesion outbreak rate is reported as 30% (Table 4, tobacco, 1 ppm); 50% (Table 4, tobacco, 10 ppm); 18% (Table 4, tobacco, 100 ppm).

In the case of `COC(=O)[C@H]1CCCN1C(=O)[C@H](NC(=O)OC(C)(C)C)C(C)C` [Compound 76] (Boc-[dV]-[dP]-OMe), the Lesion outbreak rate is, setting by setting: (Table 6, tobacco, 1 ppm) 46%; (Table 6, tobacco, 10 ppm) 41%; (Table 6, tobacco, 100 ppm) 37%.

`COC(=O)[C@H]1CCCN1C(=O)[C@@H](CCC(N)=O)NC(=O)OC(C)(C)C` [Compound 72] (Boc-[dQ]-[dP]-OMe): the Lesion outbreak rate reads like this: (Table 6, tobacco, 1 ppm) 55%; (Table 6, tobacco, 10 ppm) 72%; (Table 6, tobacco, 100 ppm) 45%.

Consider `COC(=O)[C@@H]1CCCN1C(=O)[C@H](CCC(N)=O)NC(=O)OC(C)(C)C` [Compound 23] (Boc-Gln-Pro-OMe), for which the Lesion outbreak rate (Table 6, tobacco, 1 ppm) is listed as 25%; the Lesion outbreak rate (Table 6, tobacco, 10 ppm) was 52%; the Lesion outbreak rate (Table 6, tobacco, 100 ppm) is listed as 36%.

On to `COC(=O)CNC(=O)CNC(=O)OC(C)(C)C` [Compound 18] (Boc-Gly-Gly-OMe), for which the Lesion outbreak rate (Table 6, tobacco, 1 ppm) came to 80%; the Lesion outbreak rate (Table 6, tobacco, 10 ppm) was 75%; the Lesion outbreak rate (Table 6, tobacco, 100 ppm) was 68%.

As for `COC(=O)[C@H]1CCCN1C(=O)[C@@H](CO)NC(=O)OC(C)(C)C` [Compound 64] (Boc-[dS]-[dP]-OMe), the Lesion outbreak rate is, setting by setting: (Table 6, tobacco, 1 ppm) 100%; (Table 6, tobacco, 10 ppm) 23%; (Table 6, tobacco, 100 ppm) 100%.

As for `COC(=O)[C@H]1CCCN1C(=O)[C@H](CCSC)NC(=O)OC(C)(C)C` [Compound 40] (Boc-Met-[dP]-OMe), the Lesion outbreak rate reads like this: (Table 4, tobacco, 1 ppm) 8%; (Table 4, tobacco, 10 ppm) 45%; (Table 4, tobacco, 100 ppm) 43%.

Regarding `COC(=O)[C@H]1CCCN1C(=O)CNC(=O)OC(C)(C)C` [Compound 38] (Boc-Gly-[dP]-OMe), the Lesion outbreak rate (Table 4, tobacco, 1 ppm) came out at 13%; the Lesion outbreak rate (Table 4, tobacco, 10 ppm) is on record as 80%; the Lesion outbreak rate (Table 4, tobacco, 100 ppm) amounted to 60%.

For `COC(=O)[C@@H]1CCCN1C(=O)[C@H](CC(C)C)NC(=O)OC(C)(C)C` [Compound 22] (Boc-Leu-Pro-OMe), the Lesion outbreak rate came to 35% (Table 6, tobacco, 1 ppm); 24% (Table 6, tobacco, 10 ppm); 46% (Table 6, tobacco, 100 ppm).

With `COC(=O)[C@H]1CCCN1C(=O)[C@H](CCC(N)=O)NC(=O)OC(C)(C)C` [Compound 45] (Boc-Gln-[dP]-OMe), the Lesion outbreak rate is, setting by setting: (Table 4, tobacco, 1 ppm) 83%; (Table 4, tobacco, 10 ppm) 33%; (Table 4, tobacco, 100 ppm) 55%.

Consider `COC(=O)[C@H](C)NC(=O)[C@@H](NC(=O)OC(C)(C)C)C(C)C` [Compound 12] (Boc-Val-Ala-OMe), for which the Lesion outbreak rate is given as 45% (Table 6, tobacco, 1 ppm); 33% (Table 6, tobacco, 10 ppm); 25% (Table 6, tobacco, 100 ppm).

As to `COC(=O)[C@@H]1CCCN1C(=O)[C@H](CCC(=O)OC(C)(C)C)NC(=O)OC(C)(C)C` [Compound 30] (Boc-Glu(OtBu)-Pro-OMe), the Lesion outbreak rate runs as follows: (Table 4, tobacco, 1 ppm) 23%; (Table 4, tobacco, 10 ppm) 36%; (Table 4, tobacco, 100 ppm) 13%.

In the case of `COC(=O)[C@H]1CCCN1C(=O)[C@H](CCCCNC(=O)OC(C)(C)C)NC(=O)OC(C)(C)C` [Compound 48] (Boc-Lys(Boc)-[dP]-OMe), the Lesion outbreak rate by setting is: (Table 5, tobacco, 10 ppm) 25%; (Table 5, tobacco, 100 ppm) 50%.

`COC(=O)[C@H]1CCCN1C(=O)[C@@H](Cc1ccc(O)cc1)NC(=O)OC(C)(C)C` [Compound 71] (Boc-[dY]-[dP]-OMe): the Lesion outbreak rate came out at 60% (Table 6, tobacco, 1 ppm); 65% (Table 6, tobacco, 10 ppm); 40% (Table 6, tobacco, 100 ppm).

As to `COC(=O)[C@@H]1CCCN1C(=O)[C@H](NC(=O)OC(C)(C)C)C(C)C` [Compound 56] (Boc-[dV]-Pro-OMe), the Lesion outbreak rate reads like this: (Table 5, tobacco, 10 ppm) 13%; (Table 5, tobacco, 100 ppm) 40%.

For `CC(C)C[C@H](N)C(=O)N[C@@H](C)C(=O)O` [Compound 11] (H-Leu-Ala-OH), the Lesion outbreak rate came out at 30% (Table 3, tobacco, 1 ppm); 46% (Table 3, tobacco, 10 ppm); 21% (Table 3, tobacco, 100 ppm).
